The record followed here is patent US6818622B2 (Darwin Discovery Ltd., priority 1997, dated 2004).

SMILES strings stand for the structures.

Data set [1] deals with shedding of TNF RII by THP-1 cells (human monocytes). The data set is described as follows: Inhibition of TNF RII shedding (Example F). The class given is cell-based. The settings on record: read-out: Example F: inhibitor concentration effecting 50% inhibition of the shedding of TNF RII, THP-1 cells stimulated with LPS, 18 hours, ELISA. How it is done: After 18 hours the supernatant is assayed for the levels of sTNF RII using a commercially available ELISA kit. The activity in the presence of 0.1 mM inhibitor or dilutions thereof is compared to activity in a control devoid of inhibitor.
For orientation: ELISA stands for enzyme-linked immunosorbent assay.

Another data set has as its target collagenase-2 (MMP-8) (Homo sapiens, UniProt P22894). Description: MMP inhibition activity fluorimetric assay (Example A), MMP-8. The class given is biochemical. The settings on record: fluorimetric substrate 10 μM, 37° C. How it is done: (§1) The potency of inhibitors of collagenase-1 (MMP-1), collagenase-2 (MMP-8), collagenase-3 (MMP-13), gelatinase-A (MMP-2), gelatinase-B (MMP-9) and stromelysin-1 (MMP-3) is determined using the following procedure:
(§2) Inhibitors are dissolved in dimethyl sulphoxide containing 0.02% β-mercaptoethanol, and serial dilutions are prepared. Activated enzyme is incubated in assay buffer containing 50 mM Tris, pH 7.4, 5 mM CaCl2, 0.002% NaN3 and Brij 35 in the presence and absence of inhibitor. Samples are preincubated at 37° C. for 15 minutes before the addition of the fluorimetric substrate (Mca-Pro-Leu-Gly-Leu-Dpa-Ala-Arg-NH2) to a final concentration of 10 μM.
(§3) The enzyme activity is compared to activity in a control devoid of inhibitor.

The next data set deals with T1, gelatinase-A (MMP-2) (Homo sapiens, UniProt P08253).
T1 sequence (P08253 110-660): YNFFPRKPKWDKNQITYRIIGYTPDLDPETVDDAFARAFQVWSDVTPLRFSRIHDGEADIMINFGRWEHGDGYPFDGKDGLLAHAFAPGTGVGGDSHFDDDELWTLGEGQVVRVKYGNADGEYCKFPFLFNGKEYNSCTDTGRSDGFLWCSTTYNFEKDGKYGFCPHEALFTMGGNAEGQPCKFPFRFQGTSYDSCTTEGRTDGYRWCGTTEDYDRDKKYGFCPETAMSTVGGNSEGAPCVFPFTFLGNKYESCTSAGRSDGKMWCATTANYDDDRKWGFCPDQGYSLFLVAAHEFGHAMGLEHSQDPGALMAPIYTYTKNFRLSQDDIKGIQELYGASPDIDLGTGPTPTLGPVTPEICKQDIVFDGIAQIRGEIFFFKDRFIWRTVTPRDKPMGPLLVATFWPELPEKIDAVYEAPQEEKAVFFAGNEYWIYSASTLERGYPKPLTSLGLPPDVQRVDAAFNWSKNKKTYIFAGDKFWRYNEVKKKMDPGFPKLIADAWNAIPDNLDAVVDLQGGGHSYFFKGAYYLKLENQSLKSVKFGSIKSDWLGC
Description: MMP inhibition activity fluorimetric assay (Example A), MMP-2. The settings on record: fluorimetric substrate 10 μM, 37° C. The class given is biochemical. As to the method: as §1, §2, §3

Data set [2] has as its system sIL-1RII shedding by PBMC. The data set is described as follows: Inhibition of sIL-1RII shedding (Example D). The format is cell-based. The settings on record: read-out: Example D: inhibitor concentration effecting 50% inhibition of the shedding of sIL-1RII; PBMC stimulated with IL-13, 18 h, ELISA. As to the method: An assay of sIL-1RII shedding by PBMC is conducted as follows: PBMC are isolated from buffy coats by standard procedures using Ficoll. A 100 μM solution of the inhibitor being tested or dilutions thereof are incubated for 18 h at 37° C. in an atmosphere of 5% CO2 with 2×10^6/ml PBMC stimulated with IL-13. The cells are centrifuged down and the supernatants tested for sIL-1RII using a commercially available ELISA kit. The activity in the presence of 100 μM inhibitor or dilutions thereof is compared to activity in a control devoid of inhibitor.

A further data set addresses gelatinase-B (MMP-9) (Homo sapiens, UniProt P14780). The data set is described as follows: MMP inhibition activity fluorimetric assay (Example A), MMP-9. The format is biochemical. The settings on record: fluorimetric substrate 10 μM, 37° C. As to the method:
as §1, §2, §3

The next data set concerns the target stromelysin-1 (MMP-3) (Homo sapiens, UniProt P08254). The data set is described as follows: MMP inhibition activity fluorimetric assay (Example A), MMP-3. The format is biochemical. Particulars: fluorimetric substrate 10 μM, 37° C. As to the method:
as §1, §2, §3

The test system of data set [3] is production of TNFα by peripheral blood mononuclear cells (PBMC). Description: Inhibition of TNFα production (Example B). The class given is cell-based. The settings on record: read-out: Example B: inhibitor concentration effecting 50% inhibition of the production of TNFα; PBMC stimulated with LPS, 18 hours, ELISA. How it is done:
PBMC are isolated from buffy coats by standard procedures using Ficoll. […] After 18 hours the supernatant is assayed for the levels of TNFα using a commercially available ELISA kit. The activity in the presence of 100 μM inhibitor or dilutions thereof is compared to activity in a control devoid of inhibitor.

The target of the next data set is collagenase-3 (MMP-13) (Homo sapiens, UniProt P45452). The data set is described as follows: MMP inhibition activity fluorimetric assay (Example A), MMP-13. The class given is biochemical. The settings on record: fluorimetric substrate 10 μM, 37° C. How it is done: as §1, §2, §3
A further data set addresses T2, collagenase-1 (MMP-1) (Homo sapiens, UniProt P03956).
T2 sequence (P03956 100-469): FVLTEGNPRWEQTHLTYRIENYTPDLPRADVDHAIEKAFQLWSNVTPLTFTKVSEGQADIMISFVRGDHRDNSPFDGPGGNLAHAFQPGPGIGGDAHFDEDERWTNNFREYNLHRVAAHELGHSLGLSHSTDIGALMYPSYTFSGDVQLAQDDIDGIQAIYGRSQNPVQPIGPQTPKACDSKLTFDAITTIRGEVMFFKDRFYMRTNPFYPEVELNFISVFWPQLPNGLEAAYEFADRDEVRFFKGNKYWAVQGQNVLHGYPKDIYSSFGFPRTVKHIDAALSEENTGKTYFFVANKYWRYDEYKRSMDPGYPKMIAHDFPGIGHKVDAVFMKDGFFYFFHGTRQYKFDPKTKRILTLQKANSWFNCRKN
The data set is described as follows: MMP inhibition activity fluorimetric assay (Example A), MMP-1. The format is biochemical. The settings on record: fluorimetric substrate 10 μM, 37° C. How it is done: as §1, §2, §3

Data set [4] has as its system marmoset joints and tendons. Description: Marmoset tendonitis study. The class given is in vivo. Particulars: oral dosing at 30 and 100 mg/kg for 3 months; for Plasma levels on repeated plasma sampling: up to 9 h post-dose. As to the method: Specific examples of compounds showing the desired profile are those of Examples 1 and 2 and cpd. 3 (see below). These three compounds have been tested in the marmoset tendonitis study. This procedure for this study has been defined by Wojtowicz-Praga et al, supra. The study was performed with oral dosing at 30 and 100 mg/kg for 3 months. […] See Hooper et al, supra.

The subject of data set [5] is L-selectin shedding by peripheral blood mononuclear cells (PBMC). The data set is described as follows: Inhibition of L-selectin shedding (Example C). The format is cell-based. The settings on record: 20 min, read-out: Example C: inhibitor concentration effecting 50% inhibition of the shedding of L-selectin, PBMC stimulated with PMA, ELISA. As to the method:
An assay of L-selectin shedding by peripheral blood mononuclear cells (PBMC) is conducted as follows: PBMC are isolated from buffy coats by standard procedures using Ficoll. A 100 μM solution of the inhibitor being tested or dilutions thereof is incubated for 20 min at 37° C. in an atmosphere of 5% CO2 with 4×10^6/ml PBMC stimulated with PMA. The cells are centrifuged down and the supernatants tested for sL-selectin using a commercially available ELISA kit. The activity in the presence of 100 μM inhibitor or dilutions thereof is compared to activity in a control devoid of inhibitor.

For data set [6], the system named is sIL-6R shedding by HL-60 cells. Description: Inhibition of IL-6R shedding (Example E). The class given is cell-based. Particulars: Homo sapiens, read-out: Example E: inhibitor concentration effecting 50% inhibition of the shedding of IL-6R; HL-60 cells stimulated with PMA, 24 h, ELISA. How it is done:
An assay of sIL-6R shedding by HL-60 cells is conducted as follows: PBMC are isolated from buffy coats by standard procedures using Ficoll. A 100 μM solution of the inhibitor being tested or dilutions thereof is incubated for 24 h at 37° C. in an atmosphere of 5% CO2 with 2×10^6/ml HL-60 cells stimulated with PMA. The cells are centrifuged down and the supernatants tested for sIl-6R using a commercially available ELISA kit. The activity in the presence of 100 μM inhibitor or dilutions thereof is compared to activity in a control devoid of inhibitor.

Chain of gelatinase-B (MMP-9) (P14780 107-707 limits assumed, species assumed): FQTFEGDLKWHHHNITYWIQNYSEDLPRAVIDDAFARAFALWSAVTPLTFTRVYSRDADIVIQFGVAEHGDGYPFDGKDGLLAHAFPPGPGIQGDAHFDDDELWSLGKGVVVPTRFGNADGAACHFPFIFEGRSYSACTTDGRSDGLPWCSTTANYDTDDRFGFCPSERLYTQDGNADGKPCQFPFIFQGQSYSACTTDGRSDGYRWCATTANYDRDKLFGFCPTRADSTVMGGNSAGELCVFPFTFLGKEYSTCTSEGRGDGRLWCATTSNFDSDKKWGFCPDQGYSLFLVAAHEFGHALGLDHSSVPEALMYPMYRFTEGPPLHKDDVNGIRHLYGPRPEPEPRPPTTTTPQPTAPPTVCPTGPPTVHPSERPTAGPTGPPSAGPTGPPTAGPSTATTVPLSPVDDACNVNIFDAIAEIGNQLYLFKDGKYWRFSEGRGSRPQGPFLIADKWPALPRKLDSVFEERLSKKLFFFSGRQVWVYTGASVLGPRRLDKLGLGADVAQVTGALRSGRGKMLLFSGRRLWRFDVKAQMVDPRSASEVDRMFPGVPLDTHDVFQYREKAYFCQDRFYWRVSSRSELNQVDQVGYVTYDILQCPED
Chain of stromelysin-1 (MMP-3) (P08254 100-477, species assumed): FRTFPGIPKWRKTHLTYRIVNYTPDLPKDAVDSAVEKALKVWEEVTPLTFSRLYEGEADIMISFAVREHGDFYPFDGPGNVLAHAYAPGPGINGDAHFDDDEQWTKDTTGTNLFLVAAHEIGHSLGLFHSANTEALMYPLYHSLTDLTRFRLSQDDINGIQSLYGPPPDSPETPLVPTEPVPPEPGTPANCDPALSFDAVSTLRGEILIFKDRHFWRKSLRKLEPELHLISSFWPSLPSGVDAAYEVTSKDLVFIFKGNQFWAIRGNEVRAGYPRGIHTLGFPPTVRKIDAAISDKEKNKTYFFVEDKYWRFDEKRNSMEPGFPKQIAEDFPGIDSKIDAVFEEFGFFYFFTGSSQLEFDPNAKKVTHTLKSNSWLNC
Chain of collagenase-2 (MMP-8) (P22894 101-467, species assumed): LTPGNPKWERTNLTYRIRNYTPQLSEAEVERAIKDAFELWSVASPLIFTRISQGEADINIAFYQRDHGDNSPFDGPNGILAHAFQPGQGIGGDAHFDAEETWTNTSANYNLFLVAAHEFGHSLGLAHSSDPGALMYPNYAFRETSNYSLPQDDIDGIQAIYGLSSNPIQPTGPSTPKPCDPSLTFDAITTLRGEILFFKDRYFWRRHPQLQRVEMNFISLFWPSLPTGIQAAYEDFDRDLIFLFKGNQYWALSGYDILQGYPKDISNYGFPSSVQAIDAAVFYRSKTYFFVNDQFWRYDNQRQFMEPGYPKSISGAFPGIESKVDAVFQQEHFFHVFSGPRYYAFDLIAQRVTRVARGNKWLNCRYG

With `CNC(=O)[C@@H](NC(=O)[C@H](CC(C)C)NC(=O)[C@@H](S)CCCN1C(=O)c2ccccc2C1=O)C(C)(C)C` [Cpd. 3, (S)-N-[2-mercapto-5-phthalimido]pentanoyl-L-leucyl-(S)-tert-leucine N-methylamide], the IC50 in data set [1] is greater than 50000 nM; against collagenase-2 (MMP-8), 9 nM; on gelatinase-A (MMP-2), 15 nM; in data set [2], greater than 50000 nM; against gelatinase-B (MMP-9), 5 nM; against stromelysin-1 (MMP-3), 179 nM. The IC50 is 10000 nM in data set [3]; 2 nM against collagenase-3 (MMP-13); 28 nM at collagenase-1 (MMP-1); greater than 50000 nM in data set [5]; greater than 50000 nM in data set [6]. The Continuous clinical observation entry in [4] is “no adverse effects”. Moreover, the “Histological observation of joints and tendons” value (“Histological observation” below) in data set [4] was “no adverse effects on joints and tendons”. In addition, the “Plasma levels on repeated plasma sampling” value (“Plasma levels” below) in data set [4] was “sustained levels in excess of the enzymes' IC50”.

For `CNC(=O)[C@@H](NC(=O)[C@H](CC(C)C)NC(=O)[C@@H](S)CCN1C(=O)CCC1=O)C(C)(C)C` [Ex. 1, 2S-[4-(2,5-Dioxopyrrolidin-1-yl)-2S-mercaptobutyrylamino]-4-methylpentanoic Acid (2,2-Dimethyl-1S-methylcarbamoylpropyl)-amide], the IC50 in data set [1] is greater than 50000 nM; against collagenase-2 (MMP-8), 10 nM; at gelatinase-A (MMP-2) it was 130 nM; in [2], 38000 nM; against gelatinase-B (MMP-9) it was 53 nM; against stromelysin-1 (MMP-3), 381 nM. In addition, the IC50 in data set [3] was greater than 50000 nM; against collagenase-3 (MMP-13), 4 nM; against collagenase-1 (MMP-1), 12 nM; in [5], greater than 50000 nM; in data set [6], greater than 50000 nM. In data set [4], the Continuous clinical observation entry is reported as “no adverse effects”. Further, the “Histological observation” value in data set [4] was “no adverse effects on joints and tendons”. In addition, the “Plasma levels” value in [4] is on record as “sustained levels in excess of the enzymes' IC50”.

For `CNC(=O)[C@@H](NC(=O)[C@H](CC(C)C)NC(=O)[C@@H](S)CCN1C(=O)N(C)C(C)(C)C1=O)C(C)(C)C` [Ex. 2, 2S-[2S-Mercapto-4-(3,4,4-trimethyl-2,5-dioxoimidazolidin-1-yl)butyrylamino]-4-methylpentanoic Acid (2,2-Dimethyl-1S-methylcarbamoylpropyl)amide], the IC50 in [1] is greater than 50000 nM; on collagenase-2 (MMP-8), 10 nM; at gelatinase-A (MMP-2), 41 nM; in data set [2], greater than 50000 nM; at gelatinase-B (MMP-9), 25 nM; at stromelysin-1 (MMP-3) it was 157 nM. Moreover, the IC50 in data set [3] is greater than 50000 nM; against collagenase-3 (MMP-13), 4 nM; against collagenase-1 (MMP-1) it was 25 nM; in [5] it was greater than 50000 nM; in data set [6], greater than 50000 nM. In addition, the Continuous clinical observation entry in [4] is on record as “no adverse effects”. Moreover, in data set [4], the “Histological observation” value is “no adverse effects on joints and tendons”. Also, the “Plasma levels” value in [4] is on record as “sustained levels in excess of the enzymes' IC50”.
